Laboratory results taken from ChEMBL document CHEMBL4483862, “Open-source discovery of chemical leads for next-generation chemoprotective antimalarials” (2018).
pIC50: −log10 of the molar value.

Test system: Plasmodium berghei
Assay: Luciferase/luciferin-expressing antifolate-resistant parasites were used to infect a culture of HepG2 cells that were pre-incubated with compounds. Infected hepatocytes emit light due to the luciferase reaction. Assay results are presented as the percent inhibition of light emission compared to control. […]
Assay type: functional
Settings: sporozoite; for pIC50: read-out: LUCIFERASE INFECTION ASSAY - IC50; for IC90: read-out: LUCIFERASE INFECTION ASSAY - IC90

| Structure (SMILES) | pIC50 | IC90 [µM] |
| --- | --- | --- |
| C=CCn1c(O)nnc1Sc1ncc([N+](=O)[O-])s1 | < 4.94 | > 11.6 |
| Cn1c(S)nnc1-c1ccc(C(C)(C)C)cc1 | < 4.88 | > 13.3 |
| Cc1nc(C(N)=NOC(=O)c2c(-c3ccccc3Cl)noc2C)cs1 | < 5.06 | > 8.76 |
| Cc1onc(-c2c(Cl)cccc2Cl)c1CO/N=C(\C#N)c1c(Cl)cccc1Cl | < 5.14 | > 7.25 |
| CCOC(=O)c1c(S(N)(=O)=O)c(C)n(-c2ccccc2)c1C | < 4.99 | > 10.2 |
| Cc1onc(-c2c(Cl)cccc2Cl)c1NC(=O)Nc1ccc(Cl)cc1 | 6.48 | 2.89 |
| CC(C)c1ccc(-n2c(SCc3ccc(Cl)cc3)nnc2-c2ccc(C(C)(C)C)cc2)cc1 | < 5.16 | > 6.93 |
| CCn1nc(C)cc1-c1nnc(SCc2ccccc2)n1-c1cccc(C(F)(F)F)c1 | < 5.13 | > 7.44 |
| COc1ccc(OCc2nc(-c3ccc4c(c3)C(C)(C)CCC4(C)C)cs2)cc1 | < 5.09 | > 8.1 |
| O=[N+]([O-])c1cnc(Sc2nnc(-c3ccccc3)[nH]2)s1 | < 4.97 | > 10.8 |
| CCCCCCCCCCCc1nnc(SCc2ccc(C)cc2)n1-c1ccccc1C(F)(F)F | < 5.18 | > 6.55 |
| COC(=O)c1c(C)nn(C(=O)c2ccc(Cl)cc2)c1-c1snnc1C | < 5.06 | > 8.76 |
| Cc1oc(-c2ccc(Cl)cc2)cc1C(=O)Nc1cccc(C(F)(F)F)c1 | < 5.06 | > 8.69 |
| Cc1noc(-c2ccc(Cl)cc2)c1C(=O)ONC(=N)c1ccc(C(F)(F)F)cc1 | < 5.11 | > 7.79 |
| CC(C)(C)c1ccc(C(=O)NNC(=S)Nc2cccc(C(F)(F)F)c2)cc1 | 5.13 | > 8.34 |
| Cc1noc(-c2ccc(C(F)(F)F)cc2)c1NC(=O)Nc1cc(Cl)cc(Cl)c1 | 6.40 | 1.05 |
| CCn1nc(C)c([N+](=O)[O-])c1C(=O)Sc1cccc(Br)c1 | < 5.05 | > 8.91 |

| Structure (SMILES) | pIC50 | IC90 [µM] |
| --- | --- | --- |
| N=C(Cc1ccc([N+](=O)[O-])cc1)NOC(=O)c1cccs1 | < 4.97 | > 10.8 |
| Cc1cc(C(=O)N/N=C/C(C)(C)C)nn1-c1ccc(C(C)C)cc1 | < 5.00 | > 10.1 |
| CCOC(=O)Cc1nn(Cc2nc(-c3ccc(C(F)(F)F)cc3)cs2)c(=O)c2ccccc12 | < 5.16 | > 6.97 |
| CC(C)(C)c1cc(C(=O)NNC(=O)Nc2cccc(C(F)(F)F)c2)n(Cc2ccccc2)n1 | < 5.14 | > 7.18 |
| CCOC(=O)c1c(S(=O)(=O)Nc2ccc(Cl)cc2)c(-c2ccccc2)n(-c2ccccc2)c1C | 5.32 | > 6.67 |
| CCCCCc1ccc(-c2nnc(SCC(C)=O)[nH]2)cc1 | < 4.96 | > 10.9 |
| O=C(Cc1cc(Br)sc1Br)Nc1cccc(C(F)(F)F)c1 | < 5.13 | > 7.45 |
| C#CCSc1nnc(-c2ccc(C(C)(C)C)cc2)n1-c1cccc(C(F)(F)F)c1 | < 5.10 | > 7.94 |
| Cc1oc(C(C)(C)C)cc1C(=O)Nc1ccc([N+](=O)[O-])cc1 | < 4.96 | > 10.9 |
| FC(F)Oc1ccc(-c2csc(COc3ccc(C4SCCS4)cc3)n2)cc1 | 5.43 | > 7.54 |
| CCOC(=O)c1c(S(=O)(=O)Nc2cccc([N+](=O)[O-])c2)c(-c2ccccc2)n(-c2ccccc2)c1C | < 5.19 | > 6.53 |
| CC(C)c1ccc(NC(=O)Nc2csc(Cc3c(Cl)cccc3Cl)n2)cc1 | < 5.11 | > 7.85 |
| Cc1ccc(NC(=O)c2csc(Cc3c(Cl)cccc3Cl)n2)cc1 | < 5.06 | > 8.75 |
| CC(C)c1ccc(-n2c(SCc3ccc([N+](=O)[O-])cc3)nnc2-c2ccc(C(C)(C)C)cc2)cc1 | < 5.17 | > 6.78 |
| CCOC(=O)c1c(S(=O)(=O)Nc2ccccc2Cl)c(-c2ccccc2)n(-c2ccccc2)c1C | < 5.18 | > 6.67 |
| CCOC(=O)c1nc(-c2ccc([N+](=O)[O-])o2)no1 | < 4.89 | > 13 |
